Data reported in article PMC8875489, “Pharmaceutical and Safety Profile Evaluation of Novel Selenocompounds with Noteworthy Anticancer Activity” (Pharmaceutics, 2022).
Like-named read-outs stand apart in the source and are kept apart here.

Tests used:
[1] = Experimental aqueous solubility (UV spectrophotometry of saturated solutions); format: physicochemical; conditions: for solubility at 24 h: water (saturated solution)
Method: Experimental aqueous solubility was determined following a previously described procedure. Briefly, calibration curves were obtained by means of UV spectrometry for each compound, and their respective linear equations were obtained. Afterwards, saturated solutions of each compound were obtained, and they were diluted until the concentration fell within the calibration range, thus enabling the correct concentration interpolation. […] A detailed description of this process can be found in Supplementary Materials.
The aqueous solubility of the tested organic Se compounds was experimentally determined following a previously described procedure. The chosen assay used UV spectrophotometry to estimate the concentration of the saturated solution with known dilutions of the tested compound at room temperature (20° C) after 24 h. The concentrations of the solutions were used to obtain the interpolation of the measured UV absorbance of the saturated solution dilution from the calibration curve drawn using solutions previously prepared in methanol/water mixtures. […]
1.2. Determination of the aqueous solubility
1.2.1. Preparation of the saturated solutions of tested compounds
The saturated solutions (2 mL) of the tested Se-compounds in water were prepared at H2O boiling point in small glass vials. Later, vials were covered to avoid evaporation and all solutions were left 1 day at 20° C, after when every solution was filtered. Finally, the concentration of the Se-compounds was determined through UV spectrophotometric measurements. To estimate correctly the concentration, calibration curves with known concentrations were prepared, and the saturated solutions were diluted till reaching a point within the range of the respective calibration curve.
1.2.2. Preparation of the calibration curve stock solutions for UV spectrometry The stock solutions of 10 selenoesters (EDA-26, EDA-71, EDA-73, EDA-74, EDA-93, […]
were prepared in methanol (99% purity) at a 1 g/L concentration. Additionally, calibration solutions in the range from 0.0005 to 0.02 [g/L] were prepared for each Se-compound and their UV absorbance was determined to draw the corresponding calibration curve.
1.2.3. Sample preparation of saturated filtrates for UV spectrometry
The 100-fold diluted solutions of the saturated filtrates of the Se-compounds were prepared in the anhydrous methanol (99% purity), by addition of 70 μL of the correspond-ing methanol stock solution over anhydrous methanol till filling a 7 mL final volume. Af-terwards, the absorption of abovementioned solutions was determined. Finally, the solu-tions were diluted with 99% methanol from 1 to 160 times, in function of the compound.
The aim of this procedure was to determine the concentration of the Se-compounds […]
through the controlled dilution of the solution with unknown concentration till its UV absorbance fell within the range of the calibration solutions.
1.2.4. Solubility estimation
For each compound, the calibration curve was calculated through the UV absorbance measurements and the linear equation of the linear part of the curve was calculated. The absorbance of the dilution was then interpolated in this range, finding its concentration.
To determine the solubility, this concentration was multiplied by the dilution factor, which was specific for each derivative. This action enabled the estimation of the in vitro solubility of the tested derivatives in saturated solutions. All the solubility values were the average value obtained from the 3 independent measurements.
1.3. PAMPA test: membrane permeability evaluation.
The passive transport and the membrane absorption of 5 selected selenocompounds (EDA-58, EDA-71, EDA-119, EDA-122, EDA-A6) were evaluated in the in vitro Parallel Artificial Membrane Permeability Assay (PAMPA). The protocol of the permeability assay was similar to the ones previously described.
1.3.1. Stock solutions and sample preparation for PAMPA test […]

[2] = system: Salmonella Typhimurium TA100 strain; conditions: for Fold Increase over Baseline / MI (mutagenic index) / B (binomial B value) / cytotoxic effect label beside B value: TA100; for Fold Increase over Baseline: alert ≥ 2.0; for MI (mutagenic index): mutagenic if MI ≥ 2; for B (binomial B value): threshold ≥ 0.99; for mutagenicity conclusion in Ames test: TA100, 1 and 10 µM
Method: Safety profiles were evaluated using an in vitro microbiological method adapted to the microplate Ames test (384-well microtitration plate), which applies Salmonella enterica serovar Typhimurium bacterial strains (the gold standard in mutagenicity research). The experiment was performed according to a previously described protocol, which is provided in the Supplementary Materials. Briefly, the TA 100 strain (deprived of the ability to synthesize the histidine) was incubated with each tested compound in an exposure medium containing a limited amount of histidine. The reversion events were counted both manually and by means of a microplate reader. Each fold increase bigger than two times the baseline level (≥2.0-fold) was considered to indicate a mutagen alert. The experiments and data analyses were prepared according to the procedure that was previously described by Flückiger-Isler et al.. The assay was performed in triplicate. The positive control selected for the mutagenicity assays was NQNO, which causes genome point mutations; specifically, it promotes G:C → A:T transitions in the Salmonella Typhimurium TA-100 strain and other bacteria such as Vibrio harveyi and Escherichia coli.
In the next step of the studies, the in vitro safety profiles of the tested selenocompounds were evaluated. All compounds were tested with the 384-well plate microfluctuation Ames test. The mutagenic index (MI) was used as the measure of mutagenicity.
1.5. Safety profile evaluation - Ames microplate mutagenicity assay
Safety profile was evaluated by the means of in vitro microbiological methods – adapted to microplate Ames test, which applies Salmonella enterica serovar Typhimurium bacterial strains (the gold standard in mutagenicity research).
1.5.1. Compounds preparation
To evaluate the impact of tested compounds and of references on Salmonella enterica serovar Typhimurium (onwards Salmonella Typhimurium) TA-100 strain growth by means of the Ames test, the compounds or the reference were dissolved in the pure DMSO, to obtain the corresponding 10 mM stock solutions. Working solutions for tested compounds (25 μM and 250 μM concentrations) were prepared before the assay in DMSO.
1.5.2. Microplate Ames mutagenicity assay protocol
Prior to the experiment, Salmonella Typhimurium was cultured overnight (NB-2 liq-uid medium in the presence of 25 μg/mL ampicillin). At the day of the experiment, fresh dilutions of the tested compounds (25 μM and 250 μM), reference compound (methylse-leninic acid) and standard mutagen (4-nitroquinoline-N-oxide at 2.5 μM and 12.5 μM) in DMSO were prepared. The positive control selected for the mutagenicity assays was NQNO, which causes point mutations at the genome. Specifically, it promotes G:C → A:T transitions in Salmonella Typhimurium TA-100 strain and in the other bacteria such as Vib-rio harveyi and Escherichia coli.
The mutagenic potential of the tested derivatives was evaluated by the incubation of the abovementioned bacteria (deprived of the ability to synthesize the histidine) with spe-cific concentrations of the tested compounds (for 90 min in the exposure medium), con-taining a limited amount of histidine (enough to provide approximately 2-3 cell divisions).
The occurrence of reversion events to histidine prototrophy was observed through the bacterial growth in the indicator medium without histidine after 48 h of incubation in temperature of 37° C [45]. The final compound and the mutagenic agent concentrations in each single well of a 384 well plate were 1 μM and 10 μM for the compounds; and 0.1 μM and 0.5 μM for the mutagen. Lastly, both a manual count and a microplate reader were used to obtain the results. The medium control baseline (MCB) was estimated as the mean number of revertants in the medium control plus one standard deviation. Each fold in-crease bigger than two times the baseline level ≥ 2.0 was considered as a mutagen alert.

[3] = 20 °C, water, thermodynamic from solid, logSm calculated based on solubility Sm (mol/L), read-out: Experimental Aqueous Solubility logSm (converted)
[4] = thermodynamic from solid, water, room temperature (20° C), after 24 h, average of 3, read-out: Experimental Aqueous Solubility

| Compound | solubility at 24 h [1, 3] [µM] | solubility at 24 h [1, 4] [µg/mL] | Fold Increase over Baseline ([2]; 1 µM) | MI (mutagenic index) ([2]; 1 µM) | B (binomial B value) ([2]; 1 µM) | Fold Increase over Baseline ([2]; 10 µM) | mutagenicity conclusion in Ames test [2] | MI (mutagenic index) ([2]; 10 µM) | B (binomial B value) ([2]; 10 µM) | fold less soluble than the most soluble Se compound (EDA-117) ([1]; experimental solubility) | solubility at 24 h ([1]; logSm calculated based on solubility Sm (mol/L), read-out: Experimental Aqueous Solubility logSm (converted)) [µM] | cytotoxicity for Salmonella Typhimurium in Ames test ([2]; 10 µM) | cytotoxic effect label beside B value ([2]; 10 µM) |
| --- | --- | --- | --- | --- | --- | --- | --- | --- | --- | --- | --- | --- | --- |
| COC(=O)C[Se]C(=O)c1cc(OC)c(OC)c(OC)c1 [EDA-26, methyl 2-((3,4,5-trimethoxybenzoyl)selanyl)acetate] | 1100 | 380 | 0.96 | 1.51 | 0.92 | 1.37 | may have had mutagenic potential |  |  |  |  |  |  |
| COC(=O)C[Se]C(=O)c1cc(OC)cc(OC)c1 [EDA-58, methyl 2-((3,5-dimethoxybenzoyl)selanyl)acetate] |  |  | 0.67 | 0.57 | 0.80 | 1.78 |  | 1.51 | 1.00 |  |  |  |  |
| CC(=O)C[Se]C(=O)c1ccc(Cl)cc1 [EDA-71, Se-(2-oxopropyl) 4-chlorobenzoselenoate] | 479 | 132 | 0.60 | 0.54 | 0.34 | 0.89 |  | 0.79 | 0.98 |  |  |  |  |
| CC(C)(C)C(=O)C[Se]C(=O)c1ccc(Cl)cc1 [EDA-73, Se-(3,3-dimethyl-2-oxobutyl) 4-chlorobenzoselenoate] | ~3.16 | ~1 | 0.84 | 1.28 | 0.72 | 0.52 |  | 0.79 | 0.04 | more than 1000 fold | 3.16 |  |  |
| COc1cc(OC)cc(C(=O)[Se]CC(=O)C(C)(C)C)c1 [EDA-74, Se-(3,3-dimethyl-2-oxobutyl) 3,5-dimethoxybenzoselenoate] | 55 | 19 | 0.98 | 0.88 | 0.94 | 0.76 |  | 0.69 | 0.68 |  |  |  |  |
| O=C(C[Se]C(=O)c1ccccc1)Oc1ccccc1 [EDA-93, phenyl 2-(benzoylselanyl)acetate] | 69.2 | 22 | 1.02 | 1.27 | 0.96 | 0.87 |  | 1.08 | 0.80 |  |  |  |  |
| C[Se]C(=O)c1ccc(C(=O)[Se]C)cc1 [EDA-109, Se,Se-dimethyl benzene-1,4-bis(carboselenoate)] | 87.1 | 28 | 0.55 | 0.96 | 0.07 | 0.39 |  | 0.67 |  |  |  | cytotoxic activity was observed | C (data points that are significantly smaller (B ≤ 0.01 (bolded)) than the mean number of spontaneous revertants are labelled C for “cytotoxic effect”) |
| C[Se]C(=O)c1cccc(C(=O)[Se]C)n1 [EDA-119, Se,Se-dimethyl pyridine-2,6-bis(carboselenoate)] | 427 | 137 | 0.54 | 0.56 | 0.24 | 0.92 |  | 0.96 | 0.90 |  |  |  |  |
| C[Se]C(=O)c1cccc(C(=O)[Se]C)c1 [EDA-120, Se,Se-dimethyl benzene-1,3-bis(carboselenoate)] | 81.3 | 26 |  | 1.24 | 1.00 |  | non-mutagenic | 1.46 | 1.00 |  |  |  |  |
| C[Se]C(=O)c1ccc(C(=O)[Se]C)s1 [EDA-122, Se,Se-dimethyl thiophene-2,5-bis(carboselenoate)] | 95.5 | 31 | 0.63 | 0.84 | 0.14 | 1.08 |  | 1.46 | 0.94 |  |  |  |  |
| O=C1[Se]C(=O)c2ccccc21 [EDA-A6, benzo[c]selenophene-1,3-dione] | 3630 | 758 | 1.08 | 1.23 | 0.94 | 0.33 |  | 0.38 | 0.001 |  |  | could have been cytotoxic | C (data points that are significantly smaller (B ≤ 0.01 (bolded)) than the mean number of spontaneous revertants are labelled C for “cytotoxic effect”) |
